This is an account of results in patent US20190038597A1, “PREVENTION OF VASCULAR AND CARDIAC FIBROSIS VIA IRE1ALPHA INHIBITION” (McMaster University, priority 2017, published 2019).

The test system of experiment [1] is SHR/L-NAME model of hypertension. The experiment is described as follows: Radiotelemetry blood pressure and heart rate in L-NAME-treated SHRs. Format: in vivo, rat. How it is done:
12-14 week old male SHRs were implanted with radiotelemetry devices and randomized to receive vehicle, L-NAME (50 mg/L) or L-NAME and 4μ8c (2.5 mg/kg/day i.p.) for 18 days. Systolic (A), diastolic (B), and heart rate (C) were monitored. Data is presented as mean±SEM. *, p<0.05 vs. NT; #, p<0.05 vs. L-NAME. N≥4 per group.
12-14 week old male SHRs were used to determine the effect of pharmacological IRE1α inhibition on L-NAME-induced vascular stiffening. They were maintained on a 12-hour light-dark cycle with rat chow and water ad libitium. Animals were implanted with radio-telemetry devices (Data Science International, St. Paul, Minn., USA) one week before the start of the study. Animals were randomized into one of three groups (n=6 per group): 1) No treatment, 2) L-NAME (50 mg/L in drinking water, Sigma-Aldrich), or 3) L-NAME+4μ8c (2.5 mg/kg/day i.p., Millipore). 4μ8c was administered in a vehicle of 10% DMSO, 10% Tween-80 and 80% normal saline. Animals in Group 2 received daily injections of the vehicle. All animals were fed a normal chow diet. At 18 days, animals were sacrificed, organs were harvested and the aorta was collected for mechanical and structural analysis. All animal work was performed according to the guidelines approved by the McMaster University Animal Research Ethics Board.
12-14 week old SHRs were implanted with radiotelemetry devices and treated with the nitric oxide synthase inhibitor L-NAME for 18 days. Rats were given daily injections of either vehicle or 4μ8c (2.5 mg/kg/day i.p.). […] At Day 6, SBP had increased from 187.4±5.4 mmHg to 228.0±15.5 mmHg (p<0.05) and DBP from 134.8±6.5 mmHg to 174.5±13.6 mmHg. At Day 14, SBP and DBP reached a peak of 262.6±13.9 mmHg and 210.4±14.8 mmHg, respectively. […] In the L-NAME+4μ8c group, SBP increased from 166.6±8.4 mmHg at baseline to 216.7±4.8 mmHg at Day 6 while DBP increased from 124.7±5.5 mmHg at baseline to 166.2±8.2 mmHg at Day 6. SBP and DBP peaked at 232.3±5.4 mmHg and 192.1±17.0 mmHg, respectively, at Day 9. […] Vessels were stained with PicroSirius Red and imaged using a light microscope (FIG. 5A). Collagen content in homogenized aortic tissue was measured using the PSR-based colorometric assay.

For experiment [2] the test system is unchanged. The experiment is described as follows: Vascular stiffness by wire myograph in L-NAME-treated SHRs. Format: in vivo, rat. The settings on record: L-NAME+4μ8c group, 18 days, maximally relaxed vessels. The method, then: 12-14 week old male SHRs were randomized to receive vehicle, L-NAME (50 mg/L) or L-NAME and 4μ8c (2.5 mg/kg/day i.p.) for 18 days. Aortas and carotid arteries were removed at sacrifice for mechanical and structural analysis. (A) Picro-Sirius Red staining of aorta and carotid artery sections (B) Determination of soluble collagen content in aorta and carotid arteries by Picro-Sirius Red-based assay. Stress-strain curves (C,E), elastic modulus-stress lines (D,F) and the slope of the elastic modulus-stress lines (G,H) were calculated. Data is presented as mean±SEM. *, p<0.05 vs. NT; #, p<0.05 vs. L-NAME. N≥4 per group; 2-5 segments of the thoracic aorta were analyzed per animal. […]
Vessels were mounted on a steel wire myograph and incubated in Ca^2±-free Hank's Basic Salt Solution containing 100 μM sodium nitroprusside to ensure maximum relaxation. […] Images of the vessels at each incremental tension were captured and lumen diameters were measured with ImageJ software. Circumferential stress (a) was calculated as F/tl, where F is the tension in the vessel wall, t is the radial thickness of the vessel wall and 1 is the axial length of the aortic ring. Circumferential strain (c) was calculated as (D−D0)/D0 where D is the lumen diameter at a given tension and D0 is the initial diameter under maximally relaxed conditions. […]

The mark [3] stands for this setting: L-NAME+4μ8c group, peak at Day 9.
The mark [4] stands for this setting: SHR, L-NAME 50 mg/L, 4μ8c 2.5 mg/kg/day i.p., 18 days.

In experiment [1] (L-NAME+4μ8c group, Day 6), `Cc1cc(=O)oc2c(C=O)c(O)ccc12` [4μ8c, 7-Hydroxy-4-methyl-2-oxo-2H-chromene-8-carbaldehyde] yielded a DBP of 166.2±8.2 mmHg and an SBP of 216.7±4.8 mmHg. In experiment [1] (L-NAME+4μ8c group, baseline), this molecule had a DBP of 124.7±5.5 mmHg and an SBP of 166.6±8.4 mmHg. In addition, in experiment [1] (setting [3]), the DBP peak is 192.1±17.0 mmHg and the SBP peak came to 232.3±5.4 mmHg. In experiment [1] (setting [4]), the “effect on L-NAME-induced elevation in blood pressure” value is “did not have an effect” and the “effect on L-NAME-induced elevation in heart rate” value is recorded as “did not have an effect”. In experiment [2], the “slope of the elastic modulus-stress line, carotid artery” value was found to be 14.42±0.59 and the “slope of the incremental elastic modulus versus stress line, aorta” value stood at 3.970±0.129.
